# Assay results: publication PMC11149917, “Translational and Therapeutic Evaluation of RAS-GTP Inhibition by RMC-6236 in RAS-Driven Cancers” (Cancer Discovery, 2024)
# Tests used:
# Plasma protein binding = format: in vitro ADME; conditions: mouse, mice
# [1] = test system: oncogenic Kras-driven autochthonous lung tumors; assay: Autochthonous tumors in GEMMs of lung cancer (barcode sequencing); format: in vivo, mouse; conditions: 20 mg/kg po qd, 3 weeks
# eCT26 syngeneic tumors = assay: Flow-cytometric analysis of tumor microenvironment; format: in vivo, mouse
# Description: For the TME analysis, tumor tissue was collected 24 hours post the last dose after 4 days of treatment with vehicle or RMC-6236 and was processed for flow-cytometric analysis. […] For the RMC-6236–treated group, the tumor average on day 0 was 445 ± 163 mm^3, and it regressed by day 4 to 71 ± 32 mm^3. Tumor tissue was minced, processed with the Dri Tumor & Tissue Dissociation Reagent from BD Biosciences and homogenized with the gentleMACS Dissociator. Tumor cell suspensions were incubated at 4°C for 30 minutes with Mouse BD Fc Block (Clone 2.4G2 from BD Pharmingen), 10 minutes with Blue Dead Cell Stain Kit (from Invitrogen) and 30 minutes in cell staining buffer. […] Cells were analyzed on a 4-laser Cytek Aurora (Cytek Biosciences), and data analysis was done using SpectroFlo (Cytek Biosciences) and FlowJo (FlowJo LLC).
structure (smiles),measurement,setting,value
CCn1c(-c2cc(N3CCN(C)CC3)cnc2[C@H](C)OC)c2c3cc(ccc31)-c1csc(n1)C[C@H](NC(=O)[C@H]1C[C@@H]1C)C(=O)N1CCC[C@H](N1)C(=O)OCC(C)(C)C2 [RMC-6236],fraction unbound,Plasma protein binding,0.011
same,tumor burden relative to vehicle-treated mice,"[1]; Kras G12C, G12D, G12V, G12A, G13D, Q61H tumors",significant and consistent reductions in tumor burden
same,tumor burden relative to vehicle-treated mice,[1]; Kras^G12C with secondary H95D or Y96C,significant reductions in tumor burden
same,tumor volume average on day 4,"eCT26 syngeneic tumors; 4 days of treatment, day 0 average 445 ± 163 mm^3",71 ± 32 mm^3
same,monocytic and granulocytic myeloid-derived suppressor cells and M2 macrophages,eCT26 syngeneic tumors; after 4 days of 25 mg/kg po qd,decreased
same,CD4^+ and CD8^+ T cells in the tumor microenvironment,"eCT26 syngeneic tumors; after 4 days of 25 mg/kg po qd, relative to vehicle",significant increase
